# Measured values: publication PMC5316400, “Validation of precision-cut liver slices to study drug-induced cholestasis: a transcriptomics approach” (Archives of Toxicology, 2016)
# How the values were obtained:
# [1] = system: Genes involved in unfolded protein response (UPR); test: Microarray gene expression in human PCLS exposed to cholestatic drugs: unfolded protein response genes; type: cell-based; conditions: 100 μM; 24 h; 60 μM bile acid mix
# Procedure: (§1) Precision-cut liver slices of 5 mm diameter and 250 μm thickness were prepared (de Graaf et al. [2010]). At this thickness, full penetration of substrates has been shown. PCLS were made using the Krumdieck tissue slicer (Alabama R&D, Munford, AL, USA) in ice-cold Krebs buffer at pH 7.42, enriched with glucose to a final concentration of 25 mM, saturated with carbogen (95 % O2/5 % CO2). Immediately after the slices were made, they were placed in ice-cold University of Wisconsin organ preservation solution (UW, Dupont Critical Care, Waukegan, IL, USA) and stored on ice until the beginning of the experiment. Slices were pre-incubated individually in 12-well plates in 1.3 ml of Williams Medium E with glutamax-1 (Gibco, Invitrogen, Paisley, Scotland) supplemented with 25 mM D-glucose and 50 μg/ml gentamycin (Gibco, Invitrogen, Paisley, Scotland). In the incubator (Sanyo CO2/O2 Incubator, PANASONIC, Secaucus, NJ, USA), the plates were gently shaken (90 times/min) for 1 h under 80 % O2 and 5 % CO2 atmosphere at 37 °C. This pre-incubation allows the slices to restore their ATP levels. […] The plates were incubated under the same conditions for 24 h. All incubation conditions were carried out in triplicate. Each experiment was performed in slices of 6 different human livers (Table 1). Slices were harvested for ATP assay in 100 mM Tris buffer with 2 mM EDTA and for RNA isolation in RNAlater. The bile acid mix was added to the medium in order to create an environment similar to the physiological concentration in the portal vein. The composition of the serum bile acids was according to Scherer et al. ([2009]). Pilot experiments were performed to find out the non-toxic concentration of the bile acid mix.
# (§2) Maxwell® 16 LEV Total RNA purification kit (Promega, The Netherlands) with Maxwell® 16 LEV Instrument was used to isolate RNA from the samples. Immediately after isolation, the RNA quality was assessed by measuring the 260/280 and 260/230 ratios, and the concentration was measured with the ND-1000 spectrophotometer (Fisher Scientific, Landsmeer, The Netherlands). The quality (RIN value) and quantity of the RNA were determined by high-throughput Caliper GX LabChip RNA kit (Caliper).
# (§3) Ambion Illumina Total Prep RNA kit was used to transcribe 300 ng RNA to cRNA according to the manufacturer’s instructions. A total of 750 ng of cRNA was hybridized at 58 °C for 16 h to the Illumina HumanHT-12 v4 Expression BeadChips. BeadChips were scanned using Iscan software, and IDAT files were generated (Illumina, San Diego, CA, USA).
# (§4) GenomeStudio software (Illumina) was used to read the IDAT files and generate raw expression values. The ArrayAnalysis web service (www.arrayanalysis.org/) was used for further preprocessing the data, which uses lumi R package (Eijssen et al. [2013]). Raw gene expression data were background-corrected (bgAdjust), variance-stabilized (VST) and normalized by quantile normalization. After normalization, the data were corrected for batch differences owing to RNA isolation and hybridization using the ComBat method implemented in the swamp package in R (Lauss et al. [2013]). Differentially expressed genes in slices exposed to the cholestatic drugs in the presence of bile acids versus the slices exposed to vehicle (DMSO) in the presence of bile acids were identified using the unpaired moderated t test in the limma package (Ritchie et al. [2015]). Genes that are regulated with a criterion of fold change of 1.5 (≤ or ≥1.5), and FDR-corrected p value ≤0.05 (Benjamini and Hochberg method) were chosen for pathway analysis. To compare our data with the scarcely available human in vivo data, human in vivo late-stage cholestasis data were downloaded from the Gene Expression Omnibus database (GSE46960).
# [2] = system: Genes involved in hepatic cholestasis pathway; test: Microarray gene expression in human PCLS exposed to cholestatic drugs: hepatic cholestasis pathway genes; conditions: 100 μM; 24 h; 60 μM bile acid mix
# Procedure: as §1, §2, §3, §4
# [3] = adult patients, therapeutic dose, systemic blood; no reference given; cited from earlier work
# [4] = system: human precision-cut liver slices (PCLS); test: Transcriptomics of human PCLS: differentially regulated genes; type: cell-based; conditions: fold change of 1.5 and adjusted p value 0.05, 24 h, 60 μM bile acid mix
# Procedure: as §1, §2, §3, §4
# [5] = system: Genes involved in the FXR pathway; test: Microarray gene expression in human PCLS exposed to cholestatic drugs: FXR pathway genes; conditions: 100 μM; 24 h; 60 μM bile acid mix
# Procedure: as §1, §2, §3, §4
# [6] = C max in systemic blood of adult patients after a therapeutic dose; conditions: highest toxic concentration tested in human PCLS vs C max in adult patients
smiles,measurement,setting,value
"C[C@]12CCC(=O)C=C1CC[C@@H]1[C@@H]2CC[C@@]2(C)[C@H]1CC[C@]2(C)O [MT, methyl testosterone]",ATF4 fold change,[1],1.2
same,DDIT3 (CHOP) fold change,[1],2.9
same,DNAJB9 fold change,[1],1.3
same,ERN1 fold change,[1],3.0
same,HSPA9 fold change,[1],1.3
same,HSPH1 fold change,[1],1.7
same,INSIG1 fold change,[1],−1.5
same,NFE2L2 fold change,[1],−1.1
same,SYVN1 fold change,[1],1.1
same,ABCB4 fold change,[2],−3.6
same,ABCB11 fold change,[2],−1.2
same,ABCC3 fold change,[2],−1.8
same,ABCG5 fold change,[2],−1.7
same,ABCG8 fold change,[2],−1.4
same,CYP8B1 fold change,[2],1.1
same,CYP27A1 fold change,[2],−1.5
same,GCGR fold change,[2],−1.1
same,IL1B fold change,[2],−1.2
same,IL1RL1 fold change,[2],3.5
same,IL1RN fold change,[2],1.9
same,IRAK2 fold change,[2],1.0
same,JUN fold change,[2],1.6
same,NR0B2 fold change,[2],1.0
same,NR1H3 fold change,[2],−1.3
same,NR1H4 fold change,[2],−1.1
same,PPRC1 fold change,[2],1.1
same,RXRA fold change,[2],−1.7
same,SLC22A7 fold change,[2],−1.1
same,TNFRSF1B fold change,[2],1.1
same,Cmax,[3],130 nM
same,Number of regulated genes,[4]; 25 μM,11
same,Number of regulated genes,[4]; 50 μM,38
same,Number of regulated genes,[4]; 100 μM,233
same,ABCB4 fold change,[5],−3.6
same,ABCB11 fold change,[5],−1.7
same,ABCG5 fold change,[5],−1.6
same,ABCG8 fold change,[5],−1.4
same,APOC2 fold change,[5],1.0
same,APOC4 fold change,[5],−1.4
same,APOF fold change,[5],1.1
same,BAAT fold change,[5],−1.4
same,C3 fold change,[5],−2.0
same,CYP8B1 fold change,[5],1.1
same,CYP27A1 fold change,[5],−1.5
same,FASN fold change,[5],1.2
same,FBP1 fold change,[5],1.2
same,FETUB fold change,[5],−1.3
same,FGA fold change,[5],1.9
same,ITIH4 fold change,[5],−1.4
same,KNG1 fold change,[5],−1.7
same,NR0B2 (SHP) fold change,[5],1.3
same,NR1H3 (LXR) fold change,[5],−1.0
same,NR1H4 (FXR) fold change,[5],−1.2
same,PON1 fold change,[5],1.1
same,RXRA fold change,[5],−1.7
same,SCARB1 fold change,[5],−1.6
same,SDC1 fold change,[5],−1.8
same,SERPINF2 fold change,[5],−1.2
same,SLC22A7 fold change,[5],−1.5
same,SLC51B fold change,[5],−2.8
same,SULT2A1 fold change,[5],1.7
same,toxic concentration used in PCLS study relative to C max,[6],~ 770 × C max
